The source of these data is US8748482B2, “Lubiprostone crystal, the use and the method for the preparation thereof” (Shanghai Techwell Biopharmaceutical Co., Ltd, priority 2008, dated 2014).

A short description of this data set: Comparison of the stability: samples sealed and placed at 40° C. for 7 days, then impurities analysed. The data set is classed as physicochemical. Conditions: for Initial Product Amount: before storage (initial); for Product Amount (after 7 days at 40° C.): sealed. On the procedure:
In the present Example, the stabilities of the oily lubiprostone (prepared according to Example 1) and the final products of Example 1 and Example 2 (crystal samples) were tested, and the results of the tests were compared. Oily lubiprostone, the sample of Example 1, and the sample of Example 2 were separately sealed and placed at 40° C. for 7 days. After completion, the amount of the impurities was analyzed.

Turning to `CCCCC(F)(F)[C@@]1(O)CCC2[C@@H](CC(=O)[C@@H]2CCCCCCC(=O)O)O1` (single isomer, unassigned; (-)) [Example 2], the “Initial Product Amount” value is 100.0% and the “Product Amount (after 7 days at 40° C.)” value is on record as 99.9%. For `CCCCC(F)(F)[C@@]1(O)CCC2[C@@H](CC(=O)[C@@H]2CCCCCCC(=O)O)O1` (single isomer, unassigned; (-)) [Example 1], in that order: 100.0% and 99.9%. Regarding `CCCCC(F)(F)[C@@]1(O)CCC2[C@@H](CC(=O)[C@@H]2CCCCCCC(=O)O)O1` (single isomer, unassigned; (-)) [Oily lubiprostone, reference compound], the “Initial Product Amount” value stood at 99.9% and the “Product Amount (after 7 days at 40° C.)” value came out at 95.8%. As for `CCCCC(F)(F)[C@@]1(O)CCC2[C@@H](CC(=O)[C@@H]2CCCCCCC(=O)O)O1` (single isomer, unassigned; (-)) [lubiprostone crystal], the “stability (conclusion in words)” value (based on the data of Table 2 (sealed, 40° C., 7 days)) was “excellent stability”.
